Experimental data taken from publication PMC10700596 (Nature Communications, 2023).
“And” between values parts separate entries of the source, which are not always exact repeats. Equal entries are not always repeated.

Assays:
Assay type in all cases: cell-based
[1] = target: 320 GPCRs (Homo sapiens, UniProt Q8IZF4)
[2] = target: 320 GPCRs (Homo sapiens, UniProt Q14439)
[3] = target: 320 GPCRs (Homo sapiens, UniProt Q8TDS4)
[4] = target: 320 GPCRs (Homo sapiens, UniProt P32238)
[5] = target: 320 GPCRs (Homo sapiens, UniProt Q9BZJ8)
[6] = target: 320 GPCRs (Homo sapiens, UniProt P34972)
[7] = tested on: 320 GPCRs
[8] = target: 320 GPCRs (Homo sapiens, UniProt Q96RI0)
320 GPCRs (Homo sapiens, UniProt Q96RI0), sequence (Q96RI0 18-385): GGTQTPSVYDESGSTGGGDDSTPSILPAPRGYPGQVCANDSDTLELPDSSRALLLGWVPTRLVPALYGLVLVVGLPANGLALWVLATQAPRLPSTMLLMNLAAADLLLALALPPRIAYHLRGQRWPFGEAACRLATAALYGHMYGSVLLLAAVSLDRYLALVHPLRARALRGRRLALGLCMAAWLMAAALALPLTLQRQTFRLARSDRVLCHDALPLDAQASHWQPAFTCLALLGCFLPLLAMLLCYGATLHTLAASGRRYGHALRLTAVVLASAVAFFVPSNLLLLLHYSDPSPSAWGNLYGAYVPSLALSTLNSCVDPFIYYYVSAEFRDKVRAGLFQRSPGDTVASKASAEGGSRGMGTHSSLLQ

[9] = target: 320 GPCRs (Homo sapiens, UniProt O15303)
320 GPCRs (Homo sapiens, UniProt O15303), sequence (O15303 25-877): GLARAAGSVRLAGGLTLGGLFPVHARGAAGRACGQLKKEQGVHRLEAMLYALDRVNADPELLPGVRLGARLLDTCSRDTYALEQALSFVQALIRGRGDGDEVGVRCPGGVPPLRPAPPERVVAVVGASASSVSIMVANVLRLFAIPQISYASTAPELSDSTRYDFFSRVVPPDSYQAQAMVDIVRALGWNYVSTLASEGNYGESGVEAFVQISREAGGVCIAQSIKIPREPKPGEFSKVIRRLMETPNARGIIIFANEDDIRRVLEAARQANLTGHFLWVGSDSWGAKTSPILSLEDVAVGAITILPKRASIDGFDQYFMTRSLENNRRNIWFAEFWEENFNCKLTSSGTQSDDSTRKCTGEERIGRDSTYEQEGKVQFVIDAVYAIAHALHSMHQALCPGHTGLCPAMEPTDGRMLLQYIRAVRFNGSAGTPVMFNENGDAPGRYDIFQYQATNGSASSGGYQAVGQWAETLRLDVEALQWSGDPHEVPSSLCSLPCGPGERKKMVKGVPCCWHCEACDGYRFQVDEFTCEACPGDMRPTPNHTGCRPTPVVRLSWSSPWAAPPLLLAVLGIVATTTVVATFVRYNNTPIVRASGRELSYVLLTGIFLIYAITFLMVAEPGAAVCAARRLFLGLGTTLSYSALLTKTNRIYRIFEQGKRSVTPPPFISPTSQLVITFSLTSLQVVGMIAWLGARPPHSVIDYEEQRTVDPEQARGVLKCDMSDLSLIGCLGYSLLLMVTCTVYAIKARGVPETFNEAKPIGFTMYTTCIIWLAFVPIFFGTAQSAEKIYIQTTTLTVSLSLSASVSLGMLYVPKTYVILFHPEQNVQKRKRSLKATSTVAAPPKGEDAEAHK

[10] = target: 320 GPCRs (Homo sapiens, UniProt P25100)
[11] = target: 320 GPCRs (Homo sapiens, UniProt Q15760)
320 GPCRs (Homo sapiens, UniProt Q15760), sequence (Q15760 whole entry): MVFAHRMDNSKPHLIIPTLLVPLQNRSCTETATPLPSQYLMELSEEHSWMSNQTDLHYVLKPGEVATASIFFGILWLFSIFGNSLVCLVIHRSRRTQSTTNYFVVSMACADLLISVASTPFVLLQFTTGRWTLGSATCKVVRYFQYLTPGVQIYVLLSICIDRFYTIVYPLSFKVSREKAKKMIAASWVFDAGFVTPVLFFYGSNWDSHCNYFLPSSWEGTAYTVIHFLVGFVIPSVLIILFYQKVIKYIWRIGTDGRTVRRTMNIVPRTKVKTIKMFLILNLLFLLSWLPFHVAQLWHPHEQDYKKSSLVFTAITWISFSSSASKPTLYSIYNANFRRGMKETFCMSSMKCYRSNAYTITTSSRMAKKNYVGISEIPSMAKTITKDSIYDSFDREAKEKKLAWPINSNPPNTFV

[12] = target: 320 GPCRs (Homo sapiens, UniProt Q86SQ4)
320 GPCRs (Homo sapiens, UniProt Q86SQ4), sequence (Q86SQ4 38-1221): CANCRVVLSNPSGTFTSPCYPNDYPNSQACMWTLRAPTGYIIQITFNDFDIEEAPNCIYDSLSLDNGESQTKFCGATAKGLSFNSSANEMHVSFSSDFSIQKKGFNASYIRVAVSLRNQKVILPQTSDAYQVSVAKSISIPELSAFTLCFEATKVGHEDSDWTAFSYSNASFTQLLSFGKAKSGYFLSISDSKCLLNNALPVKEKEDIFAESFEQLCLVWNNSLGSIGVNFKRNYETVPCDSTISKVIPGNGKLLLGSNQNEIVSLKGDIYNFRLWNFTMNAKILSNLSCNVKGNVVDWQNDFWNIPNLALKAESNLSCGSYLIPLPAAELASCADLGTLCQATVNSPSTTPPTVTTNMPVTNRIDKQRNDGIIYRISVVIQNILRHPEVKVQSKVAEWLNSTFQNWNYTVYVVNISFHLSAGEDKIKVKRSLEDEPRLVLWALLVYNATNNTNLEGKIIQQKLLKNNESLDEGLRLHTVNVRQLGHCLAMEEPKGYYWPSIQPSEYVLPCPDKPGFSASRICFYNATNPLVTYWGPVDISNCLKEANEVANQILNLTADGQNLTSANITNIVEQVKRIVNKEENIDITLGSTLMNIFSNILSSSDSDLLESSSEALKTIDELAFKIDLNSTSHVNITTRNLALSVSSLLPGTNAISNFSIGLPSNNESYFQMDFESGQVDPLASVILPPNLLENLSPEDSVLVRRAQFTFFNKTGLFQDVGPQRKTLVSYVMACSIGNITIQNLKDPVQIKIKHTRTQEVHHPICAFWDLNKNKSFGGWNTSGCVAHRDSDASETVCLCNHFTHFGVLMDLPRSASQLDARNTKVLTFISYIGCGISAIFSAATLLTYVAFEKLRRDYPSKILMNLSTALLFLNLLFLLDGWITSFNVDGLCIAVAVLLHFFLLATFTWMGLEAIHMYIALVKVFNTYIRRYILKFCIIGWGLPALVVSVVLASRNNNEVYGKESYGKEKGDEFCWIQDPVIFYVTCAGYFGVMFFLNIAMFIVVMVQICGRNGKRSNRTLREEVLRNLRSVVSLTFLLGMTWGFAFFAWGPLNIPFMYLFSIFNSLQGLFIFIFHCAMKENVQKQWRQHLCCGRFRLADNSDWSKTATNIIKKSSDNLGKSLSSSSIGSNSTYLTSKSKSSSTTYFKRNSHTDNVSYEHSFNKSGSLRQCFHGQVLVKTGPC

[13] = target: 320 GPCRs (Homo sapiens, UniProt Q9UJ42)
[14] = target: 320 GPCRs (Homo sapiens, UniProt Q02643)
[15] = target: 320 GPCRs (Homo sapiens, UniProt P43115)
[16] = target: 320 GPCRs (Homo sapiens, UniProt Q969N4)
[17] = target: 320 GPCRs (Homo sapiens, UniProt Q8TDV0)
320 GPCRs (Homo sapiens, UniProt Q8TDV0), sequence (Q8TDV0 whole entry): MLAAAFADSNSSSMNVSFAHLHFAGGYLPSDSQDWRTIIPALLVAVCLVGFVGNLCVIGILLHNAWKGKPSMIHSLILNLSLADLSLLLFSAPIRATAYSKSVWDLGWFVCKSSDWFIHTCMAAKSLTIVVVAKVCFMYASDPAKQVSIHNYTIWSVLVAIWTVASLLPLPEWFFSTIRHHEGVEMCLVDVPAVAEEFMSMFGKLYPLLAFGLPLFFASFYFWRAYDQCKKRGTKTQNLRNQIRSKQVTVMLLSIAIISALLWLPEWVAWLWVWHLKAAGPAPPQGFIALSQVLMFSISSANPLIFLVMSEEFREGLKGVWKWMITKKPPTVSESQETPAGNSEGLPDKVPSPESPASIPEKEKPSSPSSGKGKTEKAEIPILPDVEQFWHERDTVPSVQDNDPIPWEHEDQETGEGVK

[18] = target: 320 GPCRs (Homo sapiens, UniProt P37288)
[19] = target: 320 GPCRs (Homo sapiens, UniProt P22888)
[20] = target: 320 GPCRs (Homo sapiens, UniProt P08173)
[21] = target: 320 GPCRs (Homo sapiens, UniProt Q9BZJ7)
[22] = target: 320 GPCRs (Homo sapiens, UniProt Q96RI9)
[23] = target: 320 GPCRs (Homo sapiens, UniProt O00254)
[24] = target: 320 GPCRs (Homo sapiens, UniProt P47871)
[25] = target: 320 GPCRs (Homo sapiens, UniProt P35348)
[26] = target: 320 GPCRs (Homo sapiens, UniProt P43119)
[27] = target: 320 GPCRs (Homo sapiens, UniProt Q99677)
[28] = target: 320 GPCRs (Homo sapiens, UniProt P13945)
[29] = target: 320 GPCRs (Homo sapiens, UniProt Q9HBX9)
[30] = target: 320 GPCRs (Homo sapiens, UniProt P41146)
[31] = target: 320 GPCRs (Homo sapiens, UniProt Q03431)
320 GPCRs (Homo sapiens, UniProt Q03431), sequence (Q03431 27-593): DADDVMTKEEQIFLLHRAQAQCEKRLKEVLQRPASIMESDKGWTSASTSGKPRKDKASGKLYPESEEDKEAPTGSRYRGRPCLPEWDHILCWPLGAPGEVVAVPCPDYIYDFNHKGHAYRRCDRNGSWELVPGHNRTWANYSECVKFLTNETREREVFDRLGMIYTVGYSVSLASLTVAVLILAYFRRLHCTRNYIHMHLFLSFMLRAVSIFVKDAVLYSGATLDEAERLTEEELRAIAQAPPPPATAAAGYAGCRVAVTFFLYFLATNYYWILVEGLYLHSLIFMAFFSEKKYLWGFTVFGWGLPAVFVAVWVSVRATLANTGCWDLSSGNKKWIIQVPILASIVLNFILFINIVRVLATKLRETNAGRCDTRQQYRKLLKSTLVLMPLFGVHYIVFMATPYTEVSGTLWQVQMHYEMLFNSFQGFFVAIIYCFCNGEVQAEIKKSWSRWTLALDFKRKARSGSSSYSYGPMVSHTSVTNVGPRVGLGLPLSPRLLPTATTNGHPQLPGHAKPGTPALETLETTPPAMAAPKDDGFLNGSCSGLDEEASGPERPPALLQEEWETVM

[32] = target: 320 GPCRs (Homo sapiens, UniProt P32239)
[33] = target: 320 GPCRs (Homo sapiens, UniProt O14842)
[34] = target: 320 GPCRs (Homo sapiens, UniProt P23945)
[35] = target: 320 GPCRs (Homo sapiens, UniProt P43116)
[36] = target: 320 GPCRs (Homo sapiens, UniProt Q8TDV2)
[37] = target: 320 GPCRs (Homo sapiens, UniProt Q16602)
320 GPCRs (Homo sapiens, UniProt Q16602), sequence (Q16602 23-461): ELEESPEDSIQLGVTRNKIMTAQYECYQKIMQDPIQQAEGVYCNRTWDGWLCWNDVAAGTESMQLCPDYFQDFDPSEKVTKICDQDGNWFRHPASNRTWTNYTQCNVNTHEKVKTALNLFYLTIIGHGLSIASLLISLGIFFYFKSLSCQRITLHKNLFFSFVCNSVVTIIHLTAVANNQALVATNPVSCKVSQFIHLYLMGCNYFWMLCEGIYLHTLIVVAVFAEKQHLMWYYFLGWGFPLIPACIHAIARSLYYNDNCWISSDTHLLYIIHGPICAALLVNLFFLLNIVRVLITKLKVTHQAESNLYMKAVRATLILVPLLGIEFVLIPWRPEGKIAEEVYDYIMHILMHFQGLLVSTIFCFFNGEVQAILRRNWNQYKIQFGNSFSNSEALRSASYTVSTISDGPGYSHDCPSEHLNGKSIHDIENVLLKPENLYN

[38] = target: 320 GPCRs (Homo sapiens, UniProt Q96G91)
[39] = target: 320 GPCRs (Homo sapiens, UniProt P35462)
[40] = target: 320 GPCRs (Homo sapiens, UniProt Q9NS66)
[41] = target: 320 GPCRs (Homo sapiens, UniProt Q7Z7M1)
[42] = target: 320 GPCRs (Homo sapiens, UniProt P41594)
[43] = target: 320 GPCRs (Homo sapiens, UniProt Q9H1C0)

320 GPCRs (Homo sapiens, UniProt Q14439), sequence (Q14439 whole entry): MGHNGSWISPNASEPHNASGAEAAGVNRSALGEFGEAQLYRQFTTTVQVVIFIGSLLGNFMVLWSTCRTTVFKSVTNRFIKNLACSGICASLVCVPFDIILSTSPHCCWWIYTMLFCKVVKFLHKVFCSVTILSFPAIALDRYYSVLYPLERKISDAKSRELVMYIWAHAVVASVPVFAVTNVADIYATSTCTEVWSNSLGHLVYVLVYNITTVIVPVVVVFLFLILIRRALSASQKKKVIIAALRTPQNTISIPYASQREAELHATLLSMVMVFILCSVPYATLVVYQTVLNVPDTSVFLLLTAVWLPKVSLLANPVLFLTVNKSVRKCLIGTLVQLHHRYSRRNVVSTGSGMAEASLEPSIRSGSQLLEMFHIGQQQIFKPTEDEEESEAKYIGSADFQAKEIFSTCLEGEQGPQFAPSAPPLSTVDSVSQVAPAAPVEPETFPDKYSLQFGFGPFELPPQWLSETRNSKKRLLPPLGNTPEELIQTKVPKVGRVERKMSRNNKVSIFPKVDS

O=C(O)C1CCC2(CC1)CC(Nc1ncnc3[nH]c4c(F)cccc4c13)C2 (stereo not shown) [Compound 74, OC(=O)C1CCC2(CC(C2)NC=3N=CN=C4NC=5C(F)=CC=CC5C34)CC1]
RLU (Fold over Basal) [1]: 0.8 Fold over Basal and 1.1 Fold over Basal and 1.2 Fold over Basal
RLU (Fold over Basal) [2]: 0.8 Fold over Basal and 1.3 Fold over Basal and 1 Fold over Basal
RLU (Fold over Basal) [3]: 1.1 Fold over Basal and 1.6 Fold over Basal and 1.9 Fold over Basal and 1.5 Fold over Basal
RLU (Fold over Basal) [4]: 1.2 Fold over Basal and 0.7 Fold over Basal and 0.6 Fold over Basal and 1 Fold over Basal
RLU (Fold over Basal) [5]: 0.8 Fold over Basal and 1.4 Fold over Basal and 1 Fold over Basal and 1.1 Fold over Basal
RLU (Fold over Basal) [6]: 2.1 Fold over Basal and 1.3 Fold over Basal and 1.7 Fold over Basal and 1.5 Fold over Basal
agonist activity in GPCR panel [7]: no agonist activity
RLU (Fold over Basal) [8]: 1 Fold over Basal and 0.7 Fold over Basal and 1.2 Fold over Basal
RLU (Fold over Basal) [9]: 1.6 Fold over Basal and 0.8 Fold over Basal and 1 Fold over Basal
RLU (Fold over Basal) [10]: 1.5 Fold over Basal and 1.7 Fold over Basal and 1.6 Fold over Basal and 0.9 Fold over Basal
RLU (Fold over Basal) [11]: 1 Fold over Basal and 1.3 Fold over Basal and 0.9 Fold over Basal and 1.8 Fold over Basal
RLU (Fold over Basal) [12]: 1 Fold over Basal and 1.1 Fold over Basal and 0.9 Fold over Basal and 1.5 Fold over Basal
RLU (Fold over Basal) [13]: 4 Fold over Basal and 2 Fold over Basal and 3.4 Fold over Basal and 3.2 Fold over Basal
RLU (Fold over Basal) [14]: 0.7 Fold over Basal and 0.6 Fold over Basal and 0.8 Fold over Basal
RLU (Fold over Basal) [15]: 0.5 Fold over Basal and 0.7 Fold over Basal
RLU (Fold over Basal) [16]: 0.7 Fold over Basal and 0.5 Fold over Basal
RLU (Fold over Basal) [17]: 0.9 Fold over Basal and 0.8 Fold over Basal and 1.1 Fold over Basal
RLU (Fold over Basal) [18]: 0.7 Fold over Basal and 1.1 Fold over Basal
RLU (Fold over Basal) [19]: 1.7 Fold over Basal and 1.8 Fold over Basal and 1.4 Fold over Basal
RLU (Fold over Basal) [20]: 1.1 Fold over Basal and 1 Fold over Basal and 1.4 Fold over Basal and 1.2 Fold over Basal
RLU (Fold over Basal) [21]: 0.6 Fold over Basal and 0.5 Fold over Basal and 0.8 Fold over Basal
RLU (Fold over Basal) [22]: 0.9 Fold over Basal and 1.1 Fold over Basal and 1.2 Fold over Basal
RLU (Fold over Basal) [23]: 2 Fold over Basal and 1.8 Fold over Basal and 3 Fold over Basal and 2.4 Fold over Basal
RLU (Fold over Basal) [24]: 1 Fold over Basal and 0.5 Fold over Basal and 0.8 Fold over Basal
RLU (Fold over Basal) [25]: 0.4 Fold over Basal and 0.7 Fold over Basal and 0.8 Fold over Basal
RLU (Fold over Basal) [26]: 0.9 Fold over Basal and 0.6 Fold over Basal and 0.7 Fold over Basal and 1 Fold over Basal
RLU (Fold over Basal) [27]: 0.9 Fold over Basal and 0.7 Fold over Basal and 0.8 Fold over Basal
RLU (Fold over Basal) [28]: 1.4 Fold over Basal and 1.2 Fold over Basal and 1.1 Fold over Basal and 1.3 Fold over Basal
RLU (Fold over Basal) [29]: 0.7 Fold over Basal and 0.9 Fold over Basal and 0.5 Fold over Basal
RLU (Fold over Basal) [30]: 0.8 Fold over Basal and 0.7 Fold over Basal and 1.3 Fold over Basal and 0.9 Fold over Basal
RLU (Fold over Basal) [31]: 1.2 Fold over Basal and 1.1 Fold over Basal and 1.4 Fold over Basal
RLU (Fold over Basal) [32]: 0.9 Fold over Basal and 1.1 Fold over Basal and 0.8 Fold over Basal
RLU (Fold over Basal) [33]: 1.6 Fold over Basal and 0.9 Fold over Basal
RLU (Fold over Basal) [34]: 1 Fold over Basal and 0.6 Fold over Basal
RLU (Fold over Basal) [35]: 1.1 Fold over Basal and 1.2 Fold over Basal and 2 Fold over Basal and 1.3 Fold over Basal
RLU (Fold over Basal) [36]: 0.8 Fold over Basal and 0.5 Fold over Basal and 1 Fold over Basal
RLU (Fold over Basal) [37]: 0.9 Fold over Basal and 1.2 Fold over Basal and 1.4 Fold over Basal and 1.1 Fold over Basal
RLU (Fold over Basal) [38]: 1 Fold over Basal and 0.7 Fold over Basal and 1.1 Fold over Basal and 1.4 Fold over Basal
RLU (Fold over Basal) [39]: 0.5 Fold over Basal and 0.6 Fold over Basal
RLU (Fold over Basal) [40]: 1.1 Fold over Basal and 1.2 Fold over Basal and 1 Fold over Basal and 0.6 Fold over Basal
RLU (Fold over Basal) [41]: 1.3 Fold over Basal and 0.7 Fold over Basal
RLU (Fold over Basal) [42]: 0.8 Fold over Basal and 1.3 Fold over Basal and 0.9 Fold over Basal and 0.7 Fold over Basal
RLU (Fold over Basal) [43]: 0.9 Fold over Basal and 0.8 Fold over Basal and 1.3 Fold over Basal
